Results on 4 compounds are retold here after patent US11680904B2, “Automated system for high-throughput all-optical dynamic electrophysiology” (The George Washington University, priority 2016, dated 2023).

Data set [1] concerns ChR2-CMs (neonatal rat ventricular CMs). The format is cell-based. How it is done: (§1) Primary CMs were used through the study for all illustrative experiments with pharmacological treatments, mainly because at the current stage, they are perceived as more mature than the hiPSC-CMs and their response to drugs has been better documented. Briefly, neonatal (2-3 day old) SPRAGUE-DAWLEY® rats were sacrificed and ventricular tissue was removed per an approved Stony Brook University IACUC protocol. The tissue was digested overnight at 4° C. using 1 mg/mL trypsin (US BIOCHEMICALS®, Cleveland, Ohio) in Hanks' Balanced Salt Solution (HBSS, GIBCO® INVITROGEN™, Carlsbad, Calif.). The next morning, the tissue was serially digested using 1 mg/mL collagenase (WORTHINGTON BIOCHEMICAL®, Lakewood, N.J.) in HBSS at 37° C. and pipetted into conical tubes and placed on ice. After centrifugation, cells were re-suspended in culture medium M199 (GIBCO®) supplemented with […] L-glutamine (GIBCO®), 0.05 μg/mL penicillin-streptomycin (MEDIATECH CELLGRO™, Kansas City, Mo.), 0.2 μg/mL vitamin B12 (SIGMA ALDRICH®, St. Louis, Mo.), 10 mM HEPES (GIBCO®), 3.5 mg/mL D-(+)-glucose (SIGMA ALDRICH®), and 10% fetal bovine serum, FBS (GIBCO®). Fibroblasts were removed via a two-step pre-plating process, where the cell suspension was plated in a flask and incubated (37° C., 5% CO2) for 45-60 minutes and switched to a new flask and the incubation repeated. CMs were then counted using a hemocytometer prior to plating in glass-bottom 96-well plates (see Jia, Z. et al. Circulation. Arrhythmia and electrophysiology 4, 753-760, (2011) and Chung, C. Y., et al. J Cardiovasc Electrophysiol […], 1323-1329, (2007)).
Adenoviral delivery of ChR2(H134R) to primary CMs was performed in suspension (see Ambrosi, C. M. et al. Methods Mol Biol 1181, 215-228, (2014)). Briefly, the plasmid pcDNA3.1/hChR2(H134R)-EYFP was used (ADDGENE™, Cambridge, Mass.; deposited by Dr. K. Deisseroth) (see Zhang, F. et al. Nature 446, 633-639, (2007)), to develop an adenoviral construct (pBR322 backbone) with a ubiquitous CMV promoter. First-generation adenovirus was generated by homologous recombination of the Ad-CMV-ChR2-eYFP into pTG3604; further propagation and purification of the virus genomes was done by transfection into HEK293 cells and CsC1 banding. CMs were re-suspended in 2% FBS M199 after counting and diluted to 1.125×10^6 cells/mL and infected using an optimized MOI of 15 for two hours in an incubator (37° C., 5% CO2) with gentle agitation every 20 minutes. The MOI had been optimized during preliminary experiments to achieve >95% ChR2 expression in CMs within 48 hours using titer of 10^12 units/mL diluted in PBS, confirmed by eYFP reporter visualization and minimal cell death (by propidium iodide staining) (see Ambrosi, C. M., et al. Prog Biophys Mol Biol 115, 294-304, (2014) and Ambrosi, C. M. et al. Methods Mol Biol 1181, 215-228, (2014)). After two hours, the cell suspension was centrifuged and culture medium was removed and replaced with fresh 10% FBS M199 for plating (see Ambrosi, C. M. et al. Methods Mol Biol 1181, 215-228, (2014)).
Non-infected control CMs and ChR2-CM cells (for OptoHTS) were plated using a concentration of 1.125×10^6 cells/mL to achieve a plating density of 470,000 cells/cm^2. For CM/ChR2-HEK co-cultures, CMs at a concentration of 1.125×10^6 cells/mL were mixed in a conical with trypsinized ChR2-HEK cells, pre-diluted to achieve ratios 150:1 CM to ChR2-HEK. After centrifugation, the media was removed and the cells were re-suspended in fresh 10% FBS M199 to achieve the same density of plating as the control CMs.
All functional experiments were carried out 4-5 days after cell plating, at room temperature in Tyrode's solution containing the following (in mM): NaCl, 135; MgCl2, 1; KCl, 5.4; CaCl2, 1.5; NaH2PO4, 0.33; glucose, 5; and HEPES, 5 adjusted to pH 7.4 with NaOH (see Chung, C. Y., et al. J Cardiovasc Electrophysiol 18, 1323-1329, (2007)). […]

The subject of data set [2] is "spark"-ChR2-CMs. The experiment in a line: sOptoHTS: all-optical electrophysiology of CMs sprinkled with "spark" ChR2-HEK cells. It counts as cell-based, rat. How it is done:
as §1
The cell delivery approach employs “spark” cells (ChR2(H134R)-HEK293), a stable cell line showing near 100% expression of ChR2. “Spark” cells were developed by transfecting HEK293 cells (CRL-1573™ ATCC®, Manassas, Va.) with the ChR2 plasmid pcDNA3.1/hChR2(H134R)-EYFP using LIPOFECTAMINE® 2000 (INVITROGEN™, Carlsbad, Calif.). […]

The test system of data set [3] is hiPS-CMs. Description: Optical calcium recording in hiPS-CMs (OptoDyCE). It counts as cell-based, human. To be noted: 1 μM, 10 min. How it is done: Frozen human iPSC-derived CMs (ICELL® Cardiomyocytes^2 CMC-100-012-001, CELLULAR DYNAMICS INTERNATIONAL™, Madison, Wis.) were thawed per the manufacturer's instructions. The cells were plated at the recommended plating density of 156,000 cells/cm^2 on fibronectin-coated 96-well glass-bottom plates. In some experiments, cells were grown in three-dimensional microgrooved scaffolds. These fibronectin-coated PDMS (SYLGARD® 184, DOW CORNING®, Midland, Mich.) scaffolds with microtopographical features (see FIG. 16, panel “e,” peak-to-peak 120 μm, depth of 50 μm) were produced by molding onto metal templates fabricated by acoustic micromachining (see Entcheva, E. et al. Lab Chip 5, 179-183, (2005); Chung, C. Y. et al. FASEB journal: official publication of the Federation of American Societies for Experimental Biology 25, 851-862, (2011); and Chung, C. Y., et al. J Cardiovasc Electrophysiol 18, 1323-1329, (2007)); and small circular microgrooved scaffolds were punched-out and placed in the 96-well plates. […]
Optical recording of membrane voltage, Vm, was performed using the synthetic voltage-sensitive dye Di-4-ANBDQBS, spectrally-compatible with ChR2. […] Intracellular calcium, [Ca^2+]i, was recorded using QUEST RHOD-4™, AM diluted from a 0.5 mM stock solution dissolved in DMSO with 20% PLURONIC® to 10 μM in Tyrode's solution. […]

For `C[S+](C)[O-]` [DMSO], the “effect on APD / electrophysiological measurements” value in data set [1] is “not seen to affect the electrophysiological (EP) measurements”.

With `CN(CCOc1ccc(NS(C)(=O)=O)cc1)CCc1ccc(NS(C)(=O)=O)cc1` [dofetilide, Dofetilide], the “calcium instability / spatial heterogeneity” value in data set [1] (0.02 μM, paced at 1 Hz, 0.539 mW/mm^2 10 ms light pulses) is recorded as “localized spontaneous calcium release (SCR)”. For the same compound, the “spatial variability in APD (dispersion of repolarization)” value in data set [1] (2 μM, 1 Hz pacing, versus control, p<0.05 for APD50) is given as “increases spatial variability in APD”. Further, in data set [1] (2 μM, 2 Hz optical pacing), the “effect on APD” value was “APD prolongation” and the voltage instabilities entry was “alternans”. The “relative APD50 change versus pacing frequency” value in data set [1] (at higher frequency, opposite to reverse-use dependence) is recorded as “enhanced relative APD50 prolongation”. Moreover, in data set [2] (0.2 μM, paced at 1 Hz), the “drug-induced AP variation, lower dose” value is given as “sporadic EADs”. In addition, the “drug-induced AP variation, higher dose” value in data set [2] (2 μM, paced 2 Hz) is reported as “large temporal variability in AP morphology”. Further, the “early afterdepolarizations (EADs) versus dose” value in data set [2] (optically paced samples, FIGS. 10A-10C) is given as “dose-dependent increase in EADs”.

As for `CC(C)NCC(O)c1ccc(O)c(O)c1` (stereo not shown) [isoproterenol], the “calcium-mediated pacing activity in quiescent cells” value in data set [3] (quiescent hiPS-CMs) is given as “calcium-mediated pacing activity was induced”. The “rate of pacing in spontaneously beating cells” value in data set [3] (spontaneously beating hiPS-CMs) is listed as “rate of pacing was accelerated”.

Regarding `COC(=O)C1=C(C)NC(C)=C(C(=O)OC)C1c1ccccc1[N+](=O)[O-]` [nifedipine, Nifedipine], in data set [1] (optical pacing 1 Hz), the “concentration of maximum APD shortening” value was “around 1 μM” and the “concentration up to which CTD monotonically decreases” value was “up to 10 μM”.
